Test results as given in US11512268B2, “Storage-stable enzyme preparations, their production and use” (BASF SE, priority 2017, dated 2022).

Experiments:
[1] = molecular target: T1, Savinase (Lederbergia lenta, UniProt P29600); experiment: storage stability of protease (Savinase activity, Suc-AAPF-pNA substrate) in liquid formulations at 37° C.; assay type: biochemical; conditions: Savinase 16.0 L 0.5 wt %, storage at 37° C.
T1 construct: purchased Sigma-Aldrich
T1 sequence (P29600 1-269): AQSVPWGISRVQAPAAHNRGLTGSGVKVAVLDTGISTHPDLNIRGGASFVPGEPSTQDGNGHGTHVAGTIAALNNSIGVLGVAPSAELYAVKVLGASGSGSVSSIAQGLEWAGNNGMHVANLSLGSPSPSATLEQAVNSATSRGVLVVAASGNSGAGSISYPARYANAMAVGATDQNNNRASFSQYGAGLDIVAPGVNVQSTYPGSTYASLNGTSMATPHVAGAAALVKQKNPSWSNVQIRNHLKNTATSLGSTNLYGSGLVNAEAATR
Method: (§1) The storage stability of Lipase and Protease in water was assessed at 37° C.
(§2) Base test formulations were manufactured by making base formulations I to VI by mixing the components according to Table 1.
(§3) The respective salt (component (a)) or comparative compound was added, if applicable, to the respective base formulation in amounts as indicated in Table 1.
(§4) The amount of enzyme as provided in Table 1 refers to active protein. Either lipase or protease was added, depending on which enzyme activity was measured.
(§5) Lipolase® 100 L (CAS-No. 9001-62-1, EC-No. 232-619-9) was purchased from Sigma-Aldrich. Savinase® 16.0 L (CAS-No. 9014-01-1, EC-No. 232-752-2) was purchased from Sigma-Aldrich.
Savinase activity at certain points in time as indicated in Table 3 was be determined by employing Succinyl-Ala-Ala-Pro-Phe-p-nitroanilide (Suc-AAPF-pNA, short AAPF) as substrate. pNA is cleaved from the substrate molecule by proteolytic cleavage, resulting in release of yellow color of free pNA which was determined by measuring OD405. Measurement were done at 20° C.
The proteolytic activity values provided in Table 3 were calculated referring to the 100% value determined in the reference formulation at the time 0.
(§6) The nomenclature of formulations is as follows: the Roman number before the full stop characterizes the base formulation, the Arabian number the type of salt (A.# inventive salt (component (a)); C-(A.#) comparative compound). Zero (“0”): no salt, but diethylene glycol.

[2] = molecular target: T2, Lipolase (Thermomyces lanuginosus, UniProt O59952); experiment: storage stability of lipase (Lipolase activity, pNitrophenol-valerate substrate) in liquid formulations at 37° C.; assay type: biochemical, Thermomyces lanuginosa; conditions: Lipolase 0.4 wt %, storage at 37° C.
T2 construct: purchased Sigma-Aldrich
T2 sequence (O59952 23-291): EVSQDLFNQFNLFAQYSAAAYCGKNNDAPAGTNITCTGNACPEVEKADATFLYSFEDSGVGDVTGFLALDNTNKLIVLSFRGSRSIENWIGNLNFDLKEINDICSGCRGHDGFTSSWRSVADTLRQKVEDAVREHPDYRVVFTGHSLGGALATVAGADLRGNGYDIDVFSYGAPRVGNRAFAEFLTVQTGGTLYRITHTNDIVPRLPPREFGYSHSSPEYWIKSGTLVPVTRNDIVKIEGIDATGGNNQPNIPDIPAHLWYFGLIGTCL
Method: as §1, §2, §3, §4, §5
Lipolase activity at certain points in time as indicated in Table 2 was be determined by employing pNitrophenol-valerate (2.4 mM pNP-C5 in 100 mM Tris pH 8.0, 0.01% Triton X100) as a substrate. The absorption was measured at 20° C. every 30 seconds over 5 minutes at 405 nm. The slope (absorbance increase at 405 nm per minute) of the time dependent absorption-curve is directly proportional to the activity of the lipase.
The lipolytic activity values provided in Table 2 were calculated referring to the 100% value determined in the reference formulation at the time 0.
as §6

## C[N+](C)(C)CCO.C[N+](C)(C)CCO.C[N+](C)(C)CCO.O=C([O-])CC(O)(CC(=O)[O-])C(=O)[O-] [C-(A.18)]
[1]; base formulation III., component (a) 2.5 wt %, 1 d
  protease activity: 94%
[1]; base formulation III., component (a) 2.5 wt %, 3 d
  protease activity: 85%
[1]; base formulation III., component (a) 2.5 wt %, 6 d
  protease activity: 72%
[1]; base formulation III., component (a) 2.5 wt %, 10 d
  protease activity: 54%
[1]; base formulation III., component (a) 2.5 wt %, 15 d
  protease activity: 43%
[1]; base formulation III., component (a) 2.5 wt %, 20 d
  protease activity: 35%
[1]; base formulation III., component (a) 2.5 wt %, 25 d
  protease activity: 28%
[1]; base formulation III., component (a) 2.5 wt %, 30 d
  protease activity: 14%
[1]; base formulation III., component (a) 2.5 wt %, T0
  protease activity: 94%
[1]; base formulation V., component (a) 4.0 wt %, 1 d
  protease activity: 90%
[1]; base formulation V., component (a) 4.0 wt %, 3 d
  protease activity: 83%
[1]; base formulation V., component (a) 4.0 wt %, 6 d
  protease activity: 64%
[1]; base formulation V., component (a) 4.0 wt %, 10 d
  protease activity: 50%
[1]; base formulation V., component (a) 4.0 wt %, 15 d
  protease activity: 40%
[1]; base formulation V., component (a) 4.0 wt %, 20 d
  protease activity: 33%
[1]; base formulation V., component (a) 4.0 wt %, 25 d
  protease activity: 25%
[1]; base formulation V., component (a) 4.0 wt %, 30 d
  protease activity: 16%
[1]; base formulation V., component (a) 4.0 wt %, T0
  protease activity: 83%
[2]; base formulation I., component (a) 2.5 wt %, 1 d
  lipase activity: 91%
[2]; base formulation I., component (a) 2.5 wt %, 3 d
  lipase activity: 84%
[2]; base formulation I., component (a) 2.5 wt %, 6 d
  lipase activity: 72%
[2]; base formulation I., component (a) 2.5 wt %, 10 d
  lipase activity: 55%
[2]; base formulation I., component (a) 2.5 wt %, 15 d
  lipase activity: 45%
[2]; base formulation I., component (a) 2.5 wt %, 20 d
  lipase activity: 39%
[2]; base formulation I., component (a) 2.5 wt %, 25 d
  lipase activity: 32%
[2]; base formulation I., component (a) 2.5 wt %, 30 d
  lipase activity: 29%
[2]; base formulation I., component (a) 2.5 wt %, T0
  lipase activity: 98%
[2]; base formulation IV., component (a) 4.0 wt %, 1 d
  lipase activity: 91%
[2]; base formulation IV., component (a) 4.0 wt %, 3 d
  lipase activity: 84%
[2]; base formulation IV., component (a) 4.0 wt %, 6 d
  lipase activity: 72%
[2]; base formulation IV., component (a) 4.0 wt %, 10 d
  lipase activity: 58%
[2]; base formulation IV., component (a) 4.0 wt %, 15 d
  lipase activity: 49%
[2]; base formulation IV., component (a) 4.0 wt %, 20 d
  lipase activity: 46%
[2]; base formulation IV., component (a) 4.0 wt %, 25 d
  lipase activity: 39%
[2]; base formulation IV., component (a) 4.0 wt %, 30 d
  lipase activity: 35%
[2]; base formulation IV., component (a) 4.0 wt %, T0
  lipase activity: 95%
[2]; base formulation VI., component (a) 4.0 wt %, 1 d
  lipase activity: 90%
[2]; base formulation VI., component (a) 4.0 wt %, 3 d
  lipase activity: 83%
[2]; base formulation VI., component (a) 4.0 wt %, 6 d
  lipase activity: 75%
[2]; base formulation VI., component (a) 4.0 wt %, 10 d
  lipase activity: 58%
[2]; base formulation VI., component (a) 4.0 wt %, 15 d
  lipase activity: 50%
[2]; base formulation VI., component (a) 4.0 wt %, 20 d
  lipase activity: 48%
[2]; base formulation VI., component (a) 4.0 wt %, 25 d
  lipase activity: 37%
[2]; base formulation VI., component (a) 4.0 wt %, 30 d
  lipase activity: 32%
[2]; base formulation VI., component (a) 4.0 wt %, T0
  lipase activity: 96%
